Data taken from US20260130395A1, “Water Dispersible Botanical Compositions” (Aquila Black Limited, priority 2021, published 2026).

Legend:
[1] = Stability of cannabinoid compounds and Vitamin E components in Beverage 1 (AB White) by LCMSMS; format: physicochemical; settings: AB White stored at 21-25° C.
[2] = Stability of cannabinoid entourage and Vitamin E components of the powder concentrate by LCMSMS; format: physicochemical; settings: powder stored at 21-25° C.
Protocol: At each time period, 0.05 g of powder was dissolved in 10 ml-15 of ethanol, diluted to fall within the analytical range, and injected into the LCMSMS for analysis.

For CCCCCc1cc2c(c(O)c1C(=O)O)[C@@H]1C=C(C)CC[C@H]1C(C)(C)O2 [D9 THCA, delta-9-tetrahydrocannabinolic acid], the “Stability of Plant-Derived Cannabinoid Compounds in AB White, 21-25° C.” value (“Stability … 21-25° C.” below) ([1]; 29 days) was 0.922 µg/mL, the “Stability … 21-25° C.” value ([1]; 30 days) was 0.934 µg/mL and the “Stability … 21-25° C.” value ([1]; 60 days) was 0.896 µg/mL. The “Stability … 21-25° C.” value ([1]; 90 days) was 0.892 µg/mL, the “Stability … 21-25° C.” value ([1]; 120 days) was 0.894 µg/mL and the “Stability … 21-25° C.” value ([1]; 150 days) was 0.934 µg/mL. For the same compound, the “Stability … 21-25° C.” value ([1]; 180 days) was 0.945 µg/mL, the “Stability … 21-25° C.” value ([1]; 210 days) was 0.913 µg/mL and the “Stability … 21-25° C.” value ([1]; 240 days) was 0.892 µg/mL. For the same compound, the “Stability … 21-25° C.” value ([1]; 270 days) was 0.905 µg/mL, the “Stability … 21-25° C.” value ([1]; 300 days) was 0.888 µg/mL and the “Stability … 21-25° C.” value ([1]; 330 days) was 0.894 µg/mL. The “Stability … 21-25° C.” value ([1]; 360 days) was 0.925 µg/mL, the “Stability … 21-25° C.” value ([1]; 390 days) was 0.907 µg/mL and the “Stability … 21-25° C.” value ([1]; 420 days) was 0.909 µg/mL. The “Stability … 21-25° C.” value ([1]; 450 days) was 0.921 µg/mL, the “Stability … 21-25° C.” value ([1]; 480 days) was 0.873 µg/mL and the “Stability … 21-25° C.” value ([1]; 510 days) was 0.903 µg/mL. The “Stability … 21-25° C.” value ([1]; 540 days) was 0.877 µg/mL, the “Stability … 21-25° C.” value ([1]; 570 days) was 0.877 µg/mL and the “Stability of Plant-Derived Cannabinoid Compounds in Powder Concentrate” value (from here on “Stability … in Powder Concentrate”) ([2]; 0 days) was 0.150 mg/g powder. For the same compound, the “Stability … in Powder Concentrate” value ([2]; 1 days) was 0.150 mg/g powder, the “Stability … in Powder Concentrate” value ([2]; 2 days) was 0.147 mg/g powder and the “Stability … in Powder Concentrate” value ([2]; 3 days) was 0.150 mg/g powder. The “Stability … in Powder Concentrate” value ([2]; 5 days) was 0.146 mg/g powder, the “Stability … in Powder Concentrate” value ([2]; 8 days) was 0.156 mg/g powder and the “Stability … in Powder Concentrate” value ([2]; 9 days) was 0.151 mg/g powder. The “Stability … in Powder Concentrate” value ([2]; 10 days) was 0.148 mg/g powder, the “Stability … in Powder Concentrate” value ([2]; 11 days) was 0.145 mg/g powder and the “Stability … in Powder Concentrate” value ([2]; 12 days) was 0.152 mg/g powder. The “Stability … in Powder Concentrate” value ([2]; 15 days) was 0.151 mg/g powder, the “Stability … in Powder Concentrate” value ([2]; 16 days) was 0.157 mg/g powder and the “Stability … in Powder Concentrate” value ([2]; 17 days) was 0.156 mg/g powder. For the same compound, the “Stability … in Powder Concentrate” value ([2]; 18 days) was 0.149 mg/g powder, the “Stability … in Powder Concentrate” value ([2]; 19 days) was 0.146 mg/g powder and the “Stability … in Powder Concentrate” value ([2]; 22 days) was 0.150 mg/g powder. The “Stability … in Powder Concentrate” value ([2]; 23 days) was 0.147 mg/g powder, the “Stability … in Powder Concentrate” value ([2]; 24 days) was 0.150 mg/g powder and the “Stability … in Powder Concentrate” value ([2]; 25 days) was 0.150 mg/g powder. For the same compound, the “Stability … in Powder Concentrate” value ([2]; 26 days) was 0.150 mg/g powder, the “Stability … in Powder Concentrate” value ([2]; 29 days) was 0.152 mg/g powder and the “Stability … in Powder Concentrate” value ([2]; 30 days) was 0.151 mg/g powder. The “Stability … in Powder Concentrate” value ([2]; 60 days) was 0.146 mg/g powder, the “Stability … in Powder Concentrate” value ([2]; 90 days) was 0.147 mg/g powder and the “Stability … in Powder Concentrate” value ([2]; 120 days) was 0.147 mg/g powder. The “Stability … in Powder Concentrate” value ([2]; 150 days) was 0.153 mg/g powder, the “Stability … in Powder Concentrate” value ([2]; 180 days) was 0.154 mg/g powder and the “Stability … in Powder Concentrate” value ([2]; 210 days) was 0.151 mg/g powder. For the same compound, the “Stability … in Powder Concentrate” value ([2]; 240 days) was 0.148 mg/g powder, the “Stability … in Powder Concentrate” value ([2]; 270 days) was 0.148 mg/g powder and the “Stability … in Powder Concentrate” value ([2]; 300 days) was 0.156 mg/g powder. For the same compound, the “Stability … in Powder Concentrate” value ([2]; 330 days) was 0.156 mg/g powder, the “Stability … in Powder Concentrate” value ([2]; 360 days) was 0.155 mg/g powder and the “Stability … in Powder Concentrate” value ([2]; 390 days) was 0.153 mg/g powder. The “Stability … in Powder Concentrate” value ([2]; 420 days) was 0.154 mg/g powder, the “Stability … in Powder Concentrate” value ([2]; 450 days) was 0.155 mg/g powder and the “Stability … in Powder Concentrate” value ([2]; 480 days) was 0.149 mg/g powder. For the same compound, the “Stability … in Powder Concentrate” value ([2]; 510 days) was 0.154 mg/g powder, the “Stability … in Powder Concentrate” value ([2]; 540 days) was 0.154 mg/g powder and the “Stability … in Powder Concentrate” value ([2]; 570 days) was 0.148 mg/g powder.
